Data from PubChem BioAssay AID248 (DTP/NCI, 2004).
“And” between values parts separate entries of the source, which are not always exact repeats. Equal entries are not always repeated. Toxic doses and inconclusive results are not listed. Square brackets hold non-standard residues; d marks the D form. Peptide text beside a SMILES is read from it. * marks the point of attachment. ξ: configuration not given here. Tos = Cc1ccc(S(=O)(=O)*)cc1; ξY = NC(Cc1ccc(O)cc1)C(=O)O

Tested on: L1210 leukemia ip in BDF1 mice, survival T/C
Assay: NCI In Vivo Anticancer Drug Screen. Data for tumor model L1210 Leukemia (intraperitoneal) in B6D2F1 (BDF1) mice
Settings: endpoint: mean survival time, higher = longer survival
Outline: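 Mice bearing the transplanted tumor received compound or vehicle. Survival of the treated group was divided by that of the vehicle-treated control group to give the ratio.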

[1] = dose: 100.0 mg/kg/injection, schedule: Q04DX003 (ip), vehicle: saline with Tween-80
[2] = dose: 200.0 mg/kg/injection, schedule: Q04DX003 (ip), vehicle: saline with Tween-80
[3] = dose: 50.0 mg/kg/injection, schedule: Q01DX009 (ip), vehicle: saline
[4] = dose: 100.0 mg/kg/injection, schedule: Q01DX009 (ip), vehicle: saline
[5] = dose: 200.0 mg/kg/injection, schedule: Q01DX009 (ip), vehicle: saline
[6] = dose: 400.0 mg/kg/injection, schedule: Q04DX003 (ip), vehicle: saline with Tween-80
[7] = dose: 50.0 mg/kg/injection, schedule: Q01DX009 (ip), vehicle: Klucel (hydroxypropylcellulose) (HPC)
[8] = dose: 100.0 mg/kg/injection, schedule: Q01DX009 (ip), vehicle: Klucel (hydroxypropylcellulose) (HPC)
[9] = dose: 200.0 mg/kg/injection, schedule: Q01DX009 (ip), vehicle: Klucel (hydroxypropylcellulose) (HPC)
[10] = dose: 100.0 mg/kg/injection, schedule: Q01DX009 (ip), vehicle: saline with Tween-80
[11] = dose: 200.0 mg/kg/injection, schedule: Q01DX009 (ip), vehicle: saline with Tween-80
[12] = dose: 400.0 mg/kg/injection, schedule: Q01DX009 (ip), vehicle: saline with Tween-80
[13] = dose: 100.0 mg/kg/injection, schedule: Q04DX003 (ip), vehicle: Klucel (hydroxypropylcellulose) (HPC)
[14] = dose: 200.0 mg/kg/injection, schedule: Q04DX003 (ip), vehicle: Klucel (hydroxypropylcellulose) (HPC)
[15] = dose: 400.0 mg/kg/injection, schedule: Q04DX003 (ip), vehicle: Klucel (hydroxypropylcellulose) (HPC)
[16] = dose: 100.0 mg/kg/injection, schedule: Q04DX003 (ip), vehicle: saline
[17] = dose: 200.0 mg/kg/injection, schedule: Q04DX003 (ip), vehicle: saline
[18] = dose: 400.0 mg/kg/injection, schedule: Q04DX003 (ip), vehicle: saline
[19] = dose: 100.0 mg/kg/injection, schedule: Q01DX001 (ip), vehicle: Klucel (hydroxypropylcellulose) (HPC)
[20] = dose: 200.0 mg/kg/injection, schedule: Q01DX001 (ip), vehicle: Klucel (hydroxypropylcellulose) (HPC)
[21] = dose: 100.0 mg/kg/injection, schedule: Q01DX001 (ip), vehicle: saline
[22] = dose: 200.0 mg/kg/injection, schedule: Q01DX001 (ip), vehicle: saline
[23] = dose: 400.0 mg/kg/injection, schedule: Q01DX001 (ip), vehicle: saline
[24] = dose: 100.0 mg/kg/injection, schedule: Q01DX001 (ip), vehicle: carboxymethylcellulose (CMC)
[25] = dose: 200.0 mg/kg/injection, schedule: Q01DX001 (ip), vehicle: carboxymethylcellulose (CMC)
[26] = dose: 400.0 mg/kg/injection, schedule: Q01DX009 (ip), vehicle: Klucel (hydroxypropylcellulose) (HPC)

## CCCCOP(=O)(OCCCC)C(O)CCC (stereo unspecified)
dose: 100.0 mg/kg/injection, schedule: Q01DX001 (ip), vehicle: saline with Tween-80
  T/C: 93 % of control
[1]
  T/C: 104 % of control
dose: 200.0 mg/kg/injection, schedule: Q01DX001 (ip), vehicle: saline with Tween-80
  T/C: 93 % of control
[2]
  T/C: 98 % of control

## Cc1ccccc1C(=O)Nc1ccccc1
[3]
  T/C: 103 % of control
[4]
  T/C: 100 % of control
[5]
  T/C: 103 % of control

## COc1cc(C(=O)C[n+]2ccccc2)ccc1O
[1]
  T/C: 93 % of control
[2]
  T/C: 93 % of control

## CCCCC(CC)C(=O)N1CCOCC1 (stereo unspecified)
[1]
  T/C: 120 % of control
[2]
  T/C: 114 % of control
[6]
  T/C: 107 % of control

## c1ccc(-c2ccc(C3=NC(c4ccccc4)CC3)[nH]2)cc1 (stereo unspecified)
[7]
  T/C: 90 % of control
[8]
  T/C: 90 % of control
[9]
  T/C: 86 % of control

## O=C(OCC(OC(=O)c1ccccc1)C1OCC(OC(=O)c2ccccc2)C1OC(=O)c1ccccc1)c1ccccc1 (stereo unspecified)
[1]
  T/C: 88 % of control
[2]
  T/C: 88 % of control
[6]
  T/C: 88 % of control

## O=C(Nc1cccc([N+](=O)[O-])c1)c1ccc2c(c1)C(=O)OC2=O
[10]
  T/C: 95 % of control
[11]
  T/C: 87 % of control
[12]
  T/C: 93 % of control

## CCOC(=O)COc1c(C(=O)OC)cc([N+](=O)[O-])cc1[N+](=O)[O-]
dose: 100.0 mg/kg/injection, schedule: Q04DX002 (ip), vehicle: saline with Tween-80
  T/C: 104 % of control
dose: 200.0 mg/kg/injection, schedule: Q04DX002 (ip), vehicle: saline with Tween-80
  T/C: 97 % of control
dose: 400.0 mg/kg/injection, schedule: Q04DX002 (ip), vehicle: saline with Tween-80
  T/C: 90 % of control

## CCOc1ncc([N+](=O)[O-])cc1[N+](=O)[O-]
[13]
  T/C: 88 % of control
[14]
  T/C: 92 % of control
[15]
  T/C: 90 % of control

## CCCCCCCCC(C(=O)c1ccccc1)=C(C(F)(F)F)C(F)(F)F
dose: 25.0 mg/kg/injection, schedule: Q01DX009 (ip), vehicle: saline
  T/C: 100 % of control
[3]
  T/C: 96 % of control
[4]
  T/C: 91 % of control
[1]
  T/C: 86 % of control
[2]
  T/C: 90 % of control
[6]
  T/C: 95 % of control

## COC(=O)C(Cc1ccc(O)cc1)NC(=O)CNS(=O)(=O)c1ccc(C)cc1 (stereo not drawn) (Tos-Gly-[ξY]-OMe)
dose: 100.0 mg/kg/injection, schedule: Q04DX003 (ip), vehicle: other
  T/C: 105 % of control
dose: 200.0 mg/kg/injection, schedule: Q04DX003 (ip), vehicle: other
  T/C: 94 % of control
dose: 400.0 mg/kg/injection, schedule: Q04DX003 (ip), vehicle: other
  T/C: 104 % of control

## Cc1cccc(NC(=O)NC2CCCCC2)c1C
dose: 100.0 mg/kg/injection, schedule: Q04DX002 (ip), vehicle: Klucel (hydroxypropylcellulose) (HPC)
  T/C: 111 % of control
dose: 200.0 mg/kg/injection, schedule: Q04DX002 (ip), vehicle: Klucel (hydroxypropylcellulose) (HPC)
  T/C: 99 % of control
dose: 400.0 mg/kg/injection, schedule: Q04DX002 (ip), vehicle: Klucel (hydroxypropylcellulose) (HPC)
  T/C: 86 % of control

## ClC1=C(Cl)C2(Cl)C3C4CC(C(I)C4I)C3C1(Cl)C2(Cl)Cl (stereo unspecified)
dose: 75.0 mg/kg/injection, schedule: Q01DX001 (ip), vehicle: other
  T/C: 98 % of control
dose: 150.0 mg/kg/injection, schedule: Q01DX001 (ip), vehicle: other
  T/C: 95 % of control

## O=c1[nH]c(=O)c2nc3cc(Br)cnc3nc2[nH]1
[16]
  T/C: 95 % of control
[17]
  T/C: 102 % of control
[18]
  T/C: 103 % of control

## COC(/C=C/c1ccccc1)=N\S(=O)(=O)c1ccccc1
dose: 50.0 mg/kg/injection, schedule: Q01DX001 (ip), vehicle: Klucel (hydroxypropylcellulose) (HPC)
  T/C: 98 % of control
[19]
  T/C: 100 % of control
[20]
  T/C: 107 % of control

## CC(=O)Nc1nc(C=O)cc(=O)[nH]1
[19]
  T/C: 100 % of control
dose: 100.0 mg/kg/injection, schedule: Q01DX001 (ip), vehicle: other
  T/C: 86 % of control
[20]
  T/C: 104 % of control
dose: 400.0 mg/kg/injection, schedule: Q01DX001 (ip), vehicle: Klucel (hydroxypropylcellulose) (HPC)
  T/C: 103 % of control
dose: 400.0 mg/kg/injection, schedule: Q01DX001 (ip), vehicle: other
  T/C: 91 % of control

## Cc1[nH]c(=O)nc(Br)c1[N+](=O)[O-]
[7]
  T/C: 101 % of control
[8]
  T/C: 107 % of control
[13]
  T/C: 97 % of control
[9]
  T/C: 98 % of control
[14]
  T/C: 95 % of control

## O=S(=O)(O)c1ccncc1
[21]
  T/C: 96 % of control
[4]
  T/C: 96 % of control
[22]
  T/C: 91 % of control
[5]
  T/C: 87 % of control
[23]
  T/C: 88 % of control
dose: 400.0 mg/kg/injection, schedule: Q01DX009 (ip), vehicle: saline
  T/C: 96 % of control

## O=[N+]([O-])c1ccc(N=Nc2ccc(O)cc2)c([N+](=O)[O-])c1
dose: 50.0 mg/kg/injection, schedule: Q01DX001 (ip), vehicle: carboxymethylcellulose (CMC)
  T/C: 100 % of control
[24]
  T/C: 106 % of control
[25]
  T/C: 105 % of control

## Cc1coc(NS(=O)(=O)c2ccc(N=Nc3c(N)n(C)c(=O)n(C)c3=O)cc2)c1C
[24]
  T/C: 98 % of control
[25]
  T/C: 95 % of control
dose: 400.0 mg/kg/injection, schedule: Q01DX001 (ip), vehicle: carboxymethylcellulose (CMC)
  T/C: 98 % of control

## CSc1nc(Cl)nc(C(Cl)Cl)c1Cl
dose: 12.5 mg/kg/injection, schedule: Q01DX009 (ip), vehicle: other
  T/C: 93 % of control
dose: 25.0 mg/kg/injection, schedule: Q01DX009 (ip), vehicle: other
  T/C: 107 % of control
dose: 50.0 mg/kg/injection, schedule: Q01DX009 (ip), vehicle: other
  T/C: 89 % of control and 90 % of control

## Cc1ccc(NC(=S)N2CCCC(C)C2)cc1C (stereo unspecified)
[8]
  T/C: 102 % of control
[9]
  T/C: 100 % of control
[26]
  T/C: 102 % of control

## CCN(CC)CCOC(=O)c1ccco1
[3]
  T/C: 96 % of control
[4]
  T/C: 103 % of control
[5]
  T/C: 100 % of control

## Clc1ccc(/C=N/N2CCN(/N=C/c3ccc(Cl)c(Cl)c3)CC2)cc1Cl
[21]
  T/C: 92 % of control
[22]
  T/C: 92 % of control
[23]
  T/C: 92 % of control

## CN(C)c1cc(O)ccc1[N+](=O)[O-]
[16]
  T/C: 103 % of control
[17]
  T/C: 95 % of control
[18]
  T/C: 100 % of control

## Nc1ccc2nc(NCCO)c3ccccc3c2c1
[8]
  T/C: 107 % of control
[13]
  T/C: 104 % of control
[9]
  T/C: 114 % of control
[14]
  T/C: 104 % of control
[26]
  T/C: 88 % of control
[15]
  T/C: 104 % of control

## O=C1NC(=O)C(c2ccc3c(c2)OCO3)N1 (stereo unspecified)
[1]
  T/C: 104 % of control
[2]
  T/C: 102 % of control
[6]
  T/C: 101 % of control

## Oc1cc(N2CC2)c(O)cc1N1CC1
dose: 0.3 mg/kg/injection, schedule: Q01DX009 (ip), vehicle: saline
  T/C: 154 % of control
dose: 0.5 mg/kg/injection, schedule: Q01DX009 (ip), vehicle: saline
  T/C: 118 % of control

## O=C(NC(Cc1ccccc1)C(=O)O)OCc1ccccc1 (stereo unspecified)
[10]
  T/C: 98 % of control
[1]
  T/C: 105 % of control
[11]
  T/C: 98 % of control
[2]
  T/C: 94 % of control
[12]
  T/C: 88 % of control
[6]
  T/C: 96 % of control
